Results on 18 molecules are retold here after PubChem BioAssay AID330 (DTP/NCI, 2004).

Values joined by “and” are separate entries in the source; they are usually repeats but may differ in a detail not shown here. Equal entries are not always repeated. Inconclusive results and toxic doses are left out.

The test system of the test is P388 leukemia ip, CD2F1 mice, survival T/C. The test is described as follows: NCI In Vivo Anticancer Drug Screen. Data for tumor model P388 Leukemia (intraperitoneal) in CD2F1 (CDF1) mice. The note with it: endpoint: median survival time, higher = longer survival. In a few lines:
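Mice carrying the transplanted tumor received test compound or vehicle. Survival was recorded in each group, and the value is the treated-group measurement divided by that of the vehicle-treated control group.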

The mark [1] stands for this setting: dose: 60.0 mg/kg/injection, schedule: Q01DX005 (ip), vehicle: saline with Tween-80.
Where [2] appears, read: dose: 120.0 mg/kg/injection, schedule: Q01DX005 (ip), vehicle: saline with Tween-80.
[3] abbreviates: dose: 240.0 mg/kg/injection, schedule: Q01DX005 (ip), vehicle: saline with Tween-80.
Where [4] appears, read: dose: 50.0 mg/kg/injection, schedule: Q01DX005 (ip), vehicle: saline with Tween-80.
Setting [5] is: dose: 100.0 mg/kg/injection, schedule: Q01DX005 (ip), vehicle: saline with Tween-80.
Setting [6] is: dose: 50.0 mg/kg/injection, schedule: Q01DX009 (ip), vehicle: Klucel (hydroxypropylcellulose) (HPC).
Where [7] appears, read: dose: 100.0 mg/kg/injection, schedule: Q01DX009 (ip), vehicle: Klucel (hydroxypropylcellulose) (HPC).
Setting [8] is: dose: 200.0 mg/kg/injection, schedule: Q01DX009 (ip), vehicle: Klucel (hydroxypropylcellulose) (HPC).

With `F[C](F)(F)[Hg][Br]`, the T/C (dose: 6.25 mg/kg/injection, schedule: Q04DX002 (ip), vehicle: saline) is 100 % of control; the T/C (dose: 12.5 mg/kg/injection, schedule: Q04DX002 (ip), vehicle: saline) is 92 % of control; the T/C (dose: 25.0 mg/kg/injection, schedule: Q04DX002 (ip), vehicle: saline) was 106 % of control.

As to `CC(N)/C(N)=N/O` (stereo not drawn), the T/C was 99 % of control (dose: 50.0 mg/kg/injection, schedule: Q01DX005 (ip), vehicle: saline); 100 % of control (dose: 100.0 mg/kg/injection, schedule: Q01DX005 (ip), vehicle: saline); 110 % of control (dose: 200.0 mg/kg/injection, schedule: Q01DX005 (ip), vehicle: saline).

As for `NC(=S)N/N=C/c1cc([N+](=O)[O-])ccc1Cl`, the T/C was 94 % of control (dose: 50.0 mg/kg/injection, schedule: Q01DX009 (ip), vehicle: suspension in saline); 92 % of control (dose: 100.0 mg/kg/injection, schedule: Q01DX009 (ip), vehicle: suspension in saline); 94 % of control (dose: 200.0 mg/kg/injection, schedule: Q01DX009 (ip), vehicle: suspension in saline).

Turning to `COc1ccc(NS(=O)(=O)c2ccc(NCc3c4ccccc4nc4cc(Cl)ccc34)cc2)nn1`, the T/C under setting [1] was 98 % of control, the T/C under setting [2] is 94 % of control and the T/C under setting [3] is 94 % of control.

Take `[N-]=[N+]=Nc1cc(-c2ccccc2)nc2cc3c(cc12)OCO3`: the T/C runs as follows: under setting [1], 97 % of control; under setting [2], 105 % of control; under setting [3], 108 % of control.

Take `COc1ccc(/C=N/NC(=O)/C(C#N)=C/c2ccc(OC)cc2)cc1`: the T/C (dose: 100.0 mg/kg/injection, schedule: Q04DX003 (ip), vehicle: saline) was 110 % of control; the T/C (dose: 200.0 mg/kg/injection, schedule: Q04DX003 (ip), vehicle: saline) is 105 % of control; the T/C (dose: 400.0 mg/kg/injection, schedule: Q04DX003 (ip), vehicle: saline) is 95 % of control.

For `C=C(C)C1(C)CC1c1ccncc1` (stereo not drawn), the T/C is, setting by setting: (dose: 25.0 mg/kg/injection, schedule: Q01DX005 (ip), vehicle: saline with Tween-80) 102 % of control; under setting [4], 103 % of control; under setting [5], 94 % of control.

`O=C(NCCCCCCCCCCNC(=O)N1CC1)N1CC1`: the T/C is, setting by setting: (dose: 0.25 mg/kg/injection, schedule: Q04DX003 (ip), vehicle: saline with Tween-80) 104 % of control; (dose: 0.5 mg/kg/injection, schedule: Q04DX003 (ip), vehicle: saline with Tween-80) 108 % of control; (dose: 1.56 mg/kg/injection, schedule: Q01DX009 (ip), vehicle: saline with Tween-80) 165 % of control; (dose: 2.0 mg/kg/injection, schedule: Q04DX003 (ip), vehicle: saline with Tween-80) 159 % of control; (dose: 3.0 mg/kg/injection, schedule: Q04DX003 (ip), vehicle: saline with Tween-80) 209 % of control; (dose: 3.13 mg/kg/injection, schedule: Q04DX003 (ip), vehicle: saline with Tween-80) 185 % of control. The T/C is 204 % of control (dose: 4.5 mg/kg/injection, schedule: Q04DX003 (ip), vehicle: saline with Tween-80); 95 % of control (dose: 6.25 mg/kg/injection, schedule: Q01DX009 (ip), vehicle: saline with Tween-80); 150 % of control (dose: 6.25 mg/kg/injection, schedule: Q04DX003 (ip), vehicle: saline with Tween-80).

In the case of `CCOC(=O)C1C(=O)CN(C(=O)OC)C1C` (stereo not drawn), the T/C is, setting by setting: under setting [4], 96 % of control; under setting [5], 99 % of control; (dose: 200.0 mg/kg/injection, schedule: Q01DX005 (ip), vehicle: saline with Tween-80) 93 % of control.

For the molecule `Cn1c(CC(O)c2nc3ccccc3n2C)nc2ccccc21` (stereo not drawn), the T/C is 98 % of control under setting [6]; 114 % of control (dose: 50.0 mg/kg/injection, schedule: Q01DX009 (ip), vehicle: saline); 105 % of control under setting [7]; 112 % of control (dose: 100.0 mg/kg/injection, schedule: Q01DX009 (ip), vehicle: saline); 98 % of control under setting [8]; 107 % of control (dose: 200.0 mg/kg/injection, schedule: Q01DX009 (ip), vehicle: saline).

`CC1=NN(C(=O)c2ccccn2)C(c2ccccc2)/C1=N\Nc1ccc(S(N)(=O)=O)cc1` (stereo not drawn): the T/C was 87 % of control (dose: 60.0 mg/kg/injection, schedule: Q01DX005 (ip), vehicle: Klucel (hydroxypropylcellulose) (HPC)); 93 % of control (dose: 120.0 mg/kg/injection, schedule: Q01DX005 (ip), vehicle: Klucel (hydroxypropylcellulose) (HPC)); 87 % of control (dose: 240.0 mg/kg/injection, schedule: Q01DX005 (ip), vehicle: Klucel (hydroxypropylcellulose) (HPC)).

On to `CC1(C)CC[C@]2(C(=O)O)CC[C@]3(C)C(=CC[C@@H]4[C@@]5(C)C[C@H](O)[C@H](O)[C@@](C)(C(=O)O)[C@@H]5CC[C@]43C)[C@@H]2C1`, for which the T/C is, setting by setting: (dose: 1.1 mg/kg/injection, schedule: Q01DX005 (ip), vehicle: Klucel (hydroxypropylcellulose) (HPC)) 91 % of control; (dose: 2.12 mg/kg/injection, schedule: Q01DX005 (ip), vehicle: Klucel (hydroxypropylcellulose) (HPC)) 89 % of control; (dose: 4.25 mg/kg/injection, schedule: Q01DX005 (ip), vehicle: Klucel (hydroxypropylcellulose) (HPC)) 100 % of control and 91 % of control; (dose: 8.5 mg/kg/injection, schedule: Q01DX005 (ip), vehicle: Klucel (hydroxypropylcellulose) (HPC)) 88 % of control and 90 % of control; (dose: 17.0 mg/kg/injection, schedule: Q01DX005 (ip), vehicle: Klucel (hydroxypropylcellulose) (HPC)) 92 % of control and 93 % of control; (dose: 34.0 mg/kg/injection, schedule: Q01DX005 (ip), vehicle: Klucel (hydroxypropylcellulose) (HPC)) 87 % of control.

Consider `C=CC(=NC(C)(C)C)Nc1ccc(OC)cc1`, for which the T/C (dose: 50.0 mg/kg/injection, schedule: Q01DX009 (ip), vehicle: saline with Tween-80) is 112 % of control and the T/C (dose: 100.0 mg/kg/injection, schedule: Q01DX009 (ip), vehicle: saline with Tween-80) is 112 % of control.

With `O=c1oc(-c2ccccc2)nc2c1CCS2`, the T/C (dose: 50.0 mg/kg/injection, schedule: Q01DX005 (ip), vehicle: Klucel (hydroxypropylcellulose) (HPC)) is 93 % of control; the T/C (dose: 100.0 mg/kg/injection, schedule: Q01DX005 (ip), vehicle: Klucel (hydroxypropylcellulose) (HPC)) was 97 % of control; the T/C (dose: 200.0 mg/kg/injection, schedule: Q01DX005 (ip), vehicle: Klucel (hydroxypropylcellulose) (HPC)) is 90 % of control.

For the molecule `CCCC(=O)C(CC)C1(C(=O)OC)NC(=S)NC(=O)C1C#N` (stereo not drawn), the T/C is 98 % of control (dose: 60.0 mg/kg/injection, schedule: Q01DX005 (ip), vehicle: saline); 105 % of control (dose: 120.0 mg/kg/injection, schedule: Q01DX005 (ip), vehicle: saline); 98 % of control (dose: 240.0 mg/kg/injection, schedule: Q01DX005 (ip), vehicle: saline).

Turning to `OC(c1cc(-c2ccc(C(F)(F)F)cc2)nc(C(F)(F)F)c1)C1CCCCN1` (stereo not drawn), the T/C was 101 % of control (dose: 6.25 mg/kg/injection, schedule: Q01DX009 (ip), vehicle: saline); 95 % of control (dose: 12.5 mg/kg/injection, schedule: Q01DX009 (ip), vehicle: saline with Tween-80); 103 % of control (dose: 12.5 mg/kg/injection, schedule: Q01DX009 (ip), vehicle: saline); 100 % of control (dose: 25.0 mg/kg/injection, schedule: Q01DX009 (ip), vehicle: saline with Tween-80); 107 % of control (dose: 25.0 mg/kg/injection, schedule: Q01DX009 (ip), vehicle: saline).

As for `Cc1noc(C)c1CON`, the T/C runs as follows: (dose: 75.0 mg/kg/injection, schedule: Q01DX009 (ip), vehicle: saline with Tween-80) 91 % of control; (dose: 75.0 mg/kg/injection, schedule: Q04DX003 (ip), vehicle: saline) 95 % of control; (dose: 150.0 mg/kg/injection, schedule: Q04DX003 (ip), vehicle: saline) 95 % of control; (dose: 300.0 mg/kg/injection, schedule: Q04DX003 (ip), vehicle: saline) 91 % of control.

With `CC(C)C(N)C(=O)O` (stereo not drawn), the T/C is 100 % of control under setting [6], 100 % of control under setting [7] and 91 % of control under setting [8].
